{"source": "patent US11827693B2", "about": "“Composition and methods based on neutralizing antibodies delivered intranasally for enhanced therapeutic efficacy” (priority 2013, dated 2023)", "test_system": "H1 influenza virus A/Puerto Rico/8/1934 (PR8)", "parameters": "species or system BALB/c mice", "conditions": "mouse, in vivo", "data": [{"smiles": "CCOC(=O)C1=C[C@@H](OC(CC)CC)[C@H](NC(C)=O)[C@@H](N)C1", "note": "[Tamiflu]", "values": [{"measurement": "protection", "value": "completely ineffective in protection"}]}]}
